Data from patent publication EP4653451A1, “POLYPEPTIDE COMPOUND AND USE THEREOF” (Chengdu New Radiomedicine Technology Co., Ltd., priority 2023, dated 2024).
Structures can show the parent of a compound that is named as a salt. Where two headings read alike, the source gives them in different places. Numbered stars: 1 amine (or outer) side, 2 acyl side, 3 side chain; on linkers, the order of the positions; unused ones are H or OH. Bridge positions count the residues as written; N and C are the ends. Square brackets hold non-standard residues; d marks the D form. Peptide text beside a SMILES is read from it. * marks the point of attachment. 1Nal = N[C@@H](Cc1cccc2ccccc12)C(=O)O; mXylylene = c1cc(C[*:1])cc(C[*:2])c1; β3hC = N[C@@H](CS)CC(=O)O; Hexanoyl = CCCCCC(=O)*; NHcPent = C1CCC(N*)C1; NHBn = c1ccc(CN*)cc1; NHPh = c1ccc(N*)cc1; NHPentyl = CCCCCN*; X2 = C1CCC(CN*)C1

Legend:
[1] = molecular target: T1, human recombinant DPP4 protein (Homo sapiens, UniProt P27487); test: Inhibitory activity against DPP4 protease activity (H-Gly-Pro-AMC fluorescence); type: biochemical; conditions: 125 pM DPP4 working solution, 90 min at room temperature
T1 construct: purchased Acrobiosystems DP4-H5211
Procedure: The human recombinant DPP4 protein (Acrobiosystems, DP4-H5211) was formulated into a 125 pM working solution with an assay buffer (20 mM Tris-HCl, 100 mM NaCl), and the DPP4 substrate (H-Gly-Pro-AMC.HBr (LEONBIO, 115035-46-6)) was diluted to a 250 µM DPP4 substrate working solution with the assay buffer. 40 µl of DPP4 working solution and 20 µl of compounds at different concentrations (4-fold dilution) were taken, then 40 µl of DPP4 substrate working solution was added, and the mixture was uniformly mixed on a shaker at room temperature for 1 min. The uniformly mixed mixture was reacted at room temperature in the dark for 90 min. Reading was made by microplate reader at excitation and emission wavelengths of 380 nm and 460 nm. The original data was saved, and the IC50 value of the compound was obtained by analyzing the data with Graphpad PRISM.

[2] = molecular target: T2, human recombinant FAP protein (Homo sapiens, UniProt Q12884); test: Inhibitory activity against FAP protease activity (Z-Gly-Pro-AMC fluorescence); type: biochemical
T2 construct: purchased Acrobiosystems FAP-H82Q6
T2 sequence (Q12884 1-760): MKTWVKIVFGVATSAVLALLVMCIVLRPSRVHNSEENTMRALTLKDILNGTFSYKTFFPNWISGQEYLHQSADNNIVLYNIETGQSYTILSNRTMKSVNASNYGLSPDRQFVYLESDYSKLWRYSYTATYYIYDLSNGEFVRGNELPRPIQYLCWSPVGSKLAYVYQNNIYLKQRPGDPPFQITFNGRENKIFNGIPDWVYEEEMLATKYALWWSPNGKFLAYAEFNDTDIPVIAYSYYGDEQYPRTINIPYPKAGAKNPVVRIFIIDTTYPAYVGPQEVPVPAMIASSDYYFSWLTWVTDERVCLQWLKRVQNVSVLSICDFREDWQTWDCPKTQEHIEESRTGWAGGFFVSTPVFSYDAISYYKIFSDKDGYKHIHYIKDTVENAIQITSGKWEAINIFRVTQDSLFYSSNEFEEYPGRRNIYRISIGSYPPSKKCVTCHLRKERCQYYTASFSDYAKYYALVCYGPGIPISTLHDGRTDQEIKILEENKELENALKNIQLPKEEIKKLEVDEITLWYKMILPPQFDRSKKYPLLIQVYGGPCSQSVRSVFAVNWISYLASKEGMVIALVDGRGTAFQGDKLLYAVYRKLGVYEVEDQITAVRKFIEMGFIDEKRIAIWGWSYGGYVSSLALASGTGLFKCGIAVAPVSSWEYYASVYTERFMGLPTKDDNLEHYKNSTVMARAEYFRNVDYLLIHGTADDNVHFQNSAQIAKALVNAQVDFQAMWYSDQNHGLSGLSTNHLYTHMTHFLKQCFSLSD
Procedure: The human recombinant FAP protein (Acrobiosystems, FAP-H82Q6) was diluted to a 125 pM FAP working solution with an assay buffer (50 mM Tris-HCl, 1 M NaCl, 1 mg/mL BSA, pH 7.5), and the FAP substrate (Z-Gly-Pro-AMC (LEONBIO, 68542-93-8)) was diluted to a 150 µM substrate working solution with the assay buffer. 40 µl of FAP working solution and 20 µl of compounds at different concentrations (4-fold dilution) were taken, then 40 µl of substrate working solution was added, and the mixture was uniformly mixed on a shaker at room temperature for 1 min. The uniformly mixed mixture was reacted at room temperature in the dark for 90 min. The fluorescence value Ex = 380 nm/Em = 460 nm was read by using a microplate reader. The original data was saved, and the IC50 value of the compound was obtained by using the original data or the Inhibition% via calculation and analyzing the data with Graphpad PRISM.

[3] = 125 pM FAP working solution, 90 min at room temperature, read-out: FAP IC50

T1 sequence (P27487 whole entry): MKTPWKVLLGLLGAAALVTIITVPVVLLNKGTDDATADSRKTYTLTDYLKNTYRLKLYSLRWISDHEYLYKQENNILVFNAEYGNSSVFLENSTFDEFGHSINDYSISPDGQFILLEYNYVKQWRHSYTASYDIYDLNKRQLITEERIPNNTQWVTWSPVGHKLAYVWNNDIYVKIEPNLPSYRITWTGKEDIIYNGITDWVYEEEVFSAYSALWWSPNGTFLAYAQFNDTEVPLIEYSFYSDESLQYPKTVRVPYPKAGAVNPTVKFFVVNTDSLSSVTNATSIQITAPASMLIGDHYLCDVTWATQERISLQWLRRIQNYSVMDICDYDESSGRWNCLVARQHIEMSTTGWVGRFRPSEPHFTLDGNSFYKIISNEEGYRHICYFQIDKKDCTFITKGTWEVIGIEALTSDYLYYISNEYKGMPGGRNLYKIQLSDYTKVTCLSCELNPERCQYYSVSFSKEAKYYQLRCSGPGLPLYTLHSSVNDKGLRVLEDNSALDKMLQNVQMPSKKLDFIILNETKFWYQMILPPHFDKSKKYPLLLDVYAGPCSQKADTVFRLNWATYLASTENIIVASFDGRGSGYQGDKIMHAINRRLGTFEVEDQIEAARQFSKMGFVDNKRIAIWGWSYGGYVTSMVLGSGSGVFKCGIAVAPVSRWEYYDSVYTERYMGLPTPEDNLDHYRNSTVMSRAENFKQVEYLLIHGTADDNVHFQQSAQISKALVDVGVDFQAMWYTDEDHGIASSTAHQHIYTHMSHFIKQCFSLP

Row | SMILES | IC50 [1] | IC50 [2, 3] | IC50 [2]
1 | CCCCCC(=O)N[C@H]1CSCc2cc(CSCCNC(=O)CN3CCN(CC(=O)O)CCN(CC(=O)O)CCN(CC(=O)O)CC3)cc(c2)CSC[C@@H](CC(=O)O)NC(=O)[C@H](Cc2ccccc2)NC(=O)[C@H](CCC(N)=O)NC(=O)[C@H]([C@@H](C)O)NC(=O)[C@@H]2CCCN2C(=O)[C@@H]2CCCN2C1=O [Compound 8, Hex-Cys-Pro-Pro-Thr-Gln-Phe-beta-HomoCys (Cys bridge TBMB (DOTA-AET)) trifluoroacetate] | > 10 µM |  | 1.18 nM
2 | CCCCCC(=O)N[C@H]1CSCc2cccc(c2)CSC[C@@H](CC(=O)NC2CCCC2)NC(=O)[C@H](Cc2cccc3ccccc23)NC(=O)[C@H](CCC(N)=O)NC(=O)[C@H]([C@@H](C)O)NC(=O)[C@@H]2CCCN2C(=O)[C@@H]2CCCN2C1=O [Compound 34] (Hexanoyl-CPPTQ[1Nal][β3hC]-NHcPent; linker 1-7 via mXylylene) | > 10 µM | 5.92 nM | 
3 | CCCCCC(=O)N[C@H]1CSCc2cccc(c2)CSC[C@@H](CC(=O)NCC2CCCC2)NC(=O)[C@H](Cc2cccc3ccccc23)NC(=O)[C@H](CCC(N)=O)NC(=O)[C@H]([C@@H](C)O)NC(=O)[C@@H]2CCCN2C(=O)[C@@H]2CCCN2C1=O [Compound 35] (Hexanoyl-CPPTQ[1Nal][β3hC]-X2; linker 1-7 via mXylylene) | > 10 µM | 6.62 nM | 
4 | CCCCCC(=O)N[C@H]1CSCc2cccc(c2)CSC[C@@H](CC(=O)Nc2ccccc2)NC(=O)[C@H](Cc2cccc3ccccc23)NC(=O)[C@H](CCC(N)=O)NC(=O)[C@H]([C@@H](C)O)NC(=O)[C@@H]2CCCN2C(=O)[C@@H]2CCCN2C1=O [Compound 36] (Hexanoyl-CPPTQ[1Nal][β3hC]-NHPh; linker 1-7 via mXylylene) | > 10 µM | 4.18 nM | 

Now from value to compound, other results behind:

Row | IC50 [1] | IC50 [2, 3] | SMILES | IC50 [2]
5 | > 10 µM | 1.53 nM | CCCCCC(=O)N[C@H]1CSCc2nc(CSCCNC(=O)CN3CCN(CC(=O)O)CCN(CC(=O)O)CCN(CC(=O)O)CC3)nc(n2)CSC[C@@H](C(=O)O)NC(=O)[C@H](Cc2ccccc2)NC(=O)[C@H](CCC(N)=O)NC(=O)[C@H]([C@@H](C)O)NC(=O)[C@@H]2CCCN2C(=O)[C@@H]2CCCN2C1=O [Compound 7, Hex-Cys-Pro-Pro-Thr-Gln-Phe-Cys-OH (Cys bridge 2,4,6-tribromomethyl-1,3,5-triazine (DOTA-AET)) trifluoroacetate] | 
6 | > 10 µM | 0.98 nM | CCCCCC(=O)N[C@H]1CSCc2cc(CSCCNC(=O)CN3CCN(CC(=O)O)CCN(CC(=O)O)CCN(CC(=O)O)CC3)cc(c2)CSC[C@@H](CNC(=O)CCc2ccc(C(F)(F)F)cc2)NC(=O)[C@H](Cc2cccc3ccccc23)NC(=O)[C@H](CCC(N)=O)NC(=O)[C@H]([C@@H](C)O)NC(=O)[C@@H]2CCCN2C(=O)[C@@H]2CCCN2C1=O [Compound 19, Hex-Cys-Pro-Pro-Thr-Gln-1Nal-Cys-CH2NH-3-(4-trifluoromethylphenyl)propanoic acid (Cys bridge TBMB (DOTA-AET))] | 
7 | > 10 µM | 1.61 nM | CCCCCC(=O)N[C@H]1CSCc2cccc(c2)CSC[C@@H](CC(N)=O)NC(=O)[C@H](Cc2cccc3ccccc23)NC(=O)[C@H](CCC(N)=O)NC(=O)[C@H]([C@@H](C)O)NC(=O)[C@@H]2CCCN2C(=O)[C@@H]2CCCN2C1=O [Compound 31] (Hexanoyl-CPPTQ[1Nal][β3hC]-NH2; linker 1-7 via mXylylene) | 
8 | > 10 µM | 3.35 nM | CCCCCNC(=O)C[C@@H]1CSCc2cccc(c2)CSC[C@H](NC(=O)CCCCC)C(=O)N2CCC[C@H]2C(=O)N2CCC[C@H]2C(=O)N[C@@H]([C@@H](C)O)C(=O)N[C@@H](CCC(N)=O)C(=O)N[C@@H](Cc2cccc3ccccc23)C(=O)N1 [Compound 32] (Hexanoyl-CPPTQ[1Nal][β3hC]-NHPentyl; linker 1-7 via mXylylene) | 
9 | > 10 µM | 2.9 nM | CCCCCC(=O)N[C@H]1CSCc2cccc(c2)CSC[C@@H](CC(=O)NCc2ccccc2)NC(=O)[C@H](Cc2cccc3ccccc23)NC(=O)[C@H](CCC(N)=O)NC(=O)[C@H]([C@@H](C)O)NC(=O)[C@@H]2CCCN2C(=O)[C@@H]2CCCN2C1=O [Compound 33] (Hexanoyl-CPPTQ[1Nal][β3hC]-NHBn; linker 1-7 via mXylylene) | 
